Measurements as given in US20240025862A1, “SUBSTITUTED N-PHENYLURACILS AND SALTS THEREOF, AND USE THEREOF AS HERBICIDAL ACTIVE SUBSTANCES” (Bayer Aktiengesellschaft, priority 2020, published 2024).

Experiments:
Assay type in all cases: in vivo
[1] = tested on: Triticum aestivum (TRZAS); assay: Post-emergence crop plant compatibility, greenhouse pot test; settings: 1.25 g/ha, vs untreated controls
Method in brief: (§1)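 Greenhouse pot test; post-emergence foliar spray at one-leaf stage, WP or EC in water + 0.5% additive, 600 l/ha. Visual rating after ~3 wk, % relative to untreated (0–100%).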

Zea mays (ZEAMX) = assay: as above; settings: vs untreated controls
Method in brief: as §1

Glycine max (GLXMA) = assay: as above
Method in brief: as §1

[2] = tested on: Echinochloa crus-galli (ECHCG); assay: Post-emergence herbicidal action, greenhouse pot test (also comparative test C); settings: dosage 20 g/ha
Method in brief: (§2)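 Greenhouse pot plants in sandy loam were sprayed post-emergence at the one-leaf stage (2–3 weeks after sowing) with WP or EC formulations plus 0.5% additive at 600 l/ha water. Activity was rated visually after about 3 weeks versus untreated controls (100% = dead, 0% = like control); rates were 20 g/ha or less, and 5 g/ha or less in the comparative test.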

Setaria viridis (SETVI) = assay: as above
Method in brief: as §2

[3] = tested on: Matricaria inodora (MATIN); assay: as above
Method in brief: as §2

[4] = tested on: Alopecurus myosuroides (ALOMY); assay: as above; settings: 20 g/ha, rated visually after about 3 weeks vs untreated controls, 100% = plants have died
Method in brief: as §2

Veronica persica (VERPE) = assay: Post-emergence herbicidal action, greenhouse pot test
Method in brief: (§3)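 Activity was scored by eye about 3 weeks after treatment against untreated plants, where 100% means dead plants and 0% means no difference. Plants at the one-leaf stage received a foliar spray of WP or EC formulations in water plus 0.5% additive (600 l/ha, up to 20 g/ha). Plants were grown in sandy loam pots in a greenhouse for 2–3 weeks before spraying.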

[5] = tested on: Abutilon theophrasti (ABUTH); assay: as above; settings: rated visually after about 3 weeks vs untreated controls, 100% = plants have died
Method in brief: as §3

[6] = tested on: Pharbitis purpurea (PHBPU); assay: as above
Method in brief: as §3

[7] = tested on: Polygonum convolvulus (POLCO); assay: as above
Method in brief: as §3

Viola tricolor (VIOTR) = assay: as above
Method in brief: as §3

Stellaria media (STEME) = assay: as above
Method in brief: as §3

[8] = tested on: Amaranthus retroflexus (AMARE); assay: as above; settings: rated visually after about 3 weeks vs untreated controls, 100% = plants have died
Method in brief: as §3

Oryza sativa (ORYSA) = assay: Post-emergence crop plant compatibility, greenhouse pot test (also comparative test C); settings: vs untreated controls
Method in brief: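 Visual damage versus untreated plants (0% = like control, 100% = plants died) was scored about 3 weeks after a post-emergence spray in greenhouse pots. Treatment: one-leaf stage, WP or EC in water at 600 l/ha with 0.5% additive; a/b/c mark different dosages on the same crop.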

Cn1c(C(F)(F)F)cc(=O)n(-c2cc(Sc3ccccc3OCC(=O)OCC3CCOC3)c(Cl)cc2F)c1=O (racemic) [I.1-72]
100%: Post-emergence action against ECHCG in % [2] | Post-emergence action against SETVI (Setaria viridis (SETVI); 20 g/ha) | Post-emergence action against SETVI in % (Setaria viridis (SETVI); dosage 1.25 g/ha) | Post-emergence action against SETVI in % (Setaria viridis (SETVI); dosage 5 g/ha) | Post-emergence action against MATIN in % ([3]; dosage 20 g/ha) | Post-emergence action against VERPE (Veronica persica (VERPE); 1.25 g/ha) | Post-emergence action against VERPE (Veronica persica (VERPE); 5 g/ha) | Post-emergence action against VERPE (Veronica persica (VERPE); 20 g/ha) | Post-emergence action at 1.25 g/ha against ABUTH in % ([5]; 1.25 g/ha) | Post-emergence action at 5 g/ha against ABUTH in % ([5]; 5 g/ha) | Post-emergence action at 20 g/ha against ABUTH in % ([5]; 20 g/ha) | Post-emergence action against PHBPU in % ([6]; dosage 5 g/ha) | Post-emergence action against PHBPU in % ([6]; dosage 20 g/ha) | Post-emergence action against POLCO in % ([7]; dosage 5 g/ha) | Post-emergence action against POLCO in % ([7]; dosage 20 g/ha) | Post-emergence action against VIOTR (Viola tricolor (VIOTR); 1.25 g/ha) | Post-emergence action against VIOTR (Viola tricolor (VIOTR); 5 g/ha) | Post-emergence action against VIOTR (Viola tricolor (VIOTR); 20 g/ha) | Post-emergence action against STEME (Stellaria media (STEME); 5 g/ha) | Post-emergence action against STEME (Stellaria media (STEME); 20 g/ha) | Post-emergence action at 5 g/ha against AMARE in % ([8]; 5 g/ha) | Post-emergence action at 20 g/ha against AMARE in % ([8]; 20 g/ha)
20%: Post-emergence action against TRZAS (crop plant compatibility) [1] | Post-emergence action against ZEAMX (crop plant compatibility) (Zea mays (ZEAMX); 5 g/ha) | Post-emergence action against GLXMA in % (Glycine max (GLXMA); 5 g/ha) | Post-emergence action against ORYSA (crop plant compatibility) (Oryza sativa (ORYSA); 5 g/ha)
80%: Post-emergence action at 20 g/ha against ALOMY in % [4] | Post-emergence action against PHBPU in % ([6]; dosage 1.25 g/ha) | Post-emergence action against POLCO in % ([7]; dosage 1.25 g/ha) | Post-emergence action at 1.25 g/ha against AMARE in % ([8]; 1.25 g/ha)
10%: Post-emergence action against ZEAMX (crop plant compatibility) (Zea mays (ZEAMX); 1.25 g/ha) | Post-emergence action against GLXMA in % (Glycine max (GLXMA); 1.25 g/ha) | Post-emergence action against ORYSA (crop plant compatibility) (Oryza sativa (ORYSA); 1.25 g/ha)
90%: Post-emergence action against MATIN in % ([3]; dosage 5 g/ha)
